Laboratory results reported in US20080175813A1, “NOVEL ATTRACTANTS FOR VESPID WASPS” (PHEROTECH INTERNATIONAL INC., priority 2007, published 2008).

Legend:
Format in all cases: in vivo
[1] = test system: Vespula pennsylvanica; assay: Experiment 1: field trapping in Oak Stump traps, chopped dried apples as supplement for heptyl butyrate; settings: Experiment 1, N = 12, Oak Stump traps, 8-11 Sep. 2006, 12 g chopped dried apples in capture water
Experimental: The experiment was run for 3 days in Tilbury Industrial Park in Delta, B.C. from 8-11 Sep. 2006. Large 2 L Oak Stump traps, with a single transverse entry tube, and 300-350 mL of water with 2-3 drops of liquid detergent added in the bottom of the interior chamber, were hung at eye level from trees or woody bushes. Traps for each of three treatments were deployed in 12 randomized complete blocks, with ≧5 m between traps. […] Almost all captured wasps were western yellowjackets, Vespula pennsylvanica. The very few Polistes spp. captured (no more than two per trap, with most traps having none) were not counted.

[2] = test system: Vespula pennsylvanica; assay: Experiment 2: field trapping, apple pomace vs chopped dried apples as supplements for heptyl butyrate; settings: Experiment 2, N = 15, 15-18 Sep. 2006, 12 g supplement in plastic mesh in capture water
Experimental: The experiment was run for 3 days in Tilbury Industrial Park in Delta, B.C. from 8-11 Sep. 2006. Large 2 L Oak Stump traps, with a single transverse entry tube, and 300-350 mL of water with 2-3 drops of liquid detergent added in the bottom of the interior chamber, were hung at eye level from trees or woody bushes. Traps for each of three treatments were deployed in 12 randomized complete blocks, with ≧5 m between traps. […] Experiment 2, with 15 replicates, was run at the same location as Experiment 1 from 15-18 Sep. 2006. […] The apple pomace was obtained from Agrisource Food Products Inc., Richmond, B.C.

[3] = test system: Vespula pennsylvanica; assay: Experiment 3: field trapping, wet vs dry apple pomace as supplements for heptyl butyrate; settings: Experiment 3, N = 12, 21-22 Sep. 2006, 12 g apple pomace in mesh bag, suspended dry or immersed in capture water
Experimental: The experiment ran from 21-22 Sep. 2006, at the same location as the first two experiments. All other experimental conditions were the same as above. Twelve replicates of three treatments were tested: 1) heptyl butyrate alone, 2) heptyl butyrate plus a mesh bag containing 12 g of apple pomace suspended dry from the trap lid along with the heptyl butyrate lure, and 3) heptyl butyrate plus 12 g of apple pomace in a mesh bag immersed in the water-detergent capture medium in the bottom of the interior chamber.

[4] = test system: Vespula pennsylvanica; assay: Experiment 4: field trapping, apple pomace vs apple juice as supplements for heptyl butyrate; settings: Experiment 4, N = 12, set up 29 Sep. 2006, collections Sept 30, Oct 2, Oct 4; 5 g apple pomace; apple juice replacing capture water
Description: A final 12-replicate experiment was set up as above, and compared wet apple pomace with apple juice. The three treatments were: 1) heptyl butyrate alone, 2) heptyl butyrate plus apple juice, and 3) heptyl butyrate plus apple pomace. In the second treatment, apple juice (Sun-Rype Products Ltd., Kelowna, B.C.) with 2-3 drops of detergent added replaced the water-detergent capture medium in the bottom of the interior trap chamber. In the third treatment, the amount of apple pomace in the plastic mesh bag immersed in the water-detergent capture medium in the bottom of the interior chamber was reduced to 5 g, which is a realistic operational dose. The experiment was set up on 29 Sep. 2006, and captured wasps were removed from the traps and counted on September 30, October 2 and October 4.

CCCCCCCOC(=O)CCC [Heptyl butyrate alone, heptyl butyrate]
MEAN NUMBER OF WASPS CAPTURED ± SE [1]: 72.8 ± 13.9 b | MEAN NUMBER OF WASPS CAPTURED ± SE ([1]; listed as heptyl butyrate): 73 | MEAN NUMBER OF WASPS CAPTURED ± SE [2]: 15.7 ± 3.4 ab | MEAN NUMBER OF WASPS CAPTURED ± SE [3]: 9.8 ± 2.0 ab | MEAN NUMBER OF WASPS CAPTURED ± SE [4]: 24.3 ± 6.7 a
